According to patent EP3807270B1, “NOVEL HETEROARYL HETEROCYCLYL COMPOUNDS FOR THE TREATMENT OF AUTOIMMUNE DISEASE” (F. Hoffmann-La Roche AG, priority 2018, dated 2019):

What was measured:
[1] = biological target: T1, human TLR8 (Homo sapiens, UniProt Q9NR97); experiment: HEK293-Blue-hTLR-8 cells assay (SEAP reporter, R848 stimulation); assay type: cell-based; settings: HEK293-Blue-hTLR8 cells, R848, 20 hrs; read-out: HEK/hTLR8 IC50
T1 construct: host or cells: HEK293 (HEK-Blue)
T1 sequence (Q9NR97 27-1041): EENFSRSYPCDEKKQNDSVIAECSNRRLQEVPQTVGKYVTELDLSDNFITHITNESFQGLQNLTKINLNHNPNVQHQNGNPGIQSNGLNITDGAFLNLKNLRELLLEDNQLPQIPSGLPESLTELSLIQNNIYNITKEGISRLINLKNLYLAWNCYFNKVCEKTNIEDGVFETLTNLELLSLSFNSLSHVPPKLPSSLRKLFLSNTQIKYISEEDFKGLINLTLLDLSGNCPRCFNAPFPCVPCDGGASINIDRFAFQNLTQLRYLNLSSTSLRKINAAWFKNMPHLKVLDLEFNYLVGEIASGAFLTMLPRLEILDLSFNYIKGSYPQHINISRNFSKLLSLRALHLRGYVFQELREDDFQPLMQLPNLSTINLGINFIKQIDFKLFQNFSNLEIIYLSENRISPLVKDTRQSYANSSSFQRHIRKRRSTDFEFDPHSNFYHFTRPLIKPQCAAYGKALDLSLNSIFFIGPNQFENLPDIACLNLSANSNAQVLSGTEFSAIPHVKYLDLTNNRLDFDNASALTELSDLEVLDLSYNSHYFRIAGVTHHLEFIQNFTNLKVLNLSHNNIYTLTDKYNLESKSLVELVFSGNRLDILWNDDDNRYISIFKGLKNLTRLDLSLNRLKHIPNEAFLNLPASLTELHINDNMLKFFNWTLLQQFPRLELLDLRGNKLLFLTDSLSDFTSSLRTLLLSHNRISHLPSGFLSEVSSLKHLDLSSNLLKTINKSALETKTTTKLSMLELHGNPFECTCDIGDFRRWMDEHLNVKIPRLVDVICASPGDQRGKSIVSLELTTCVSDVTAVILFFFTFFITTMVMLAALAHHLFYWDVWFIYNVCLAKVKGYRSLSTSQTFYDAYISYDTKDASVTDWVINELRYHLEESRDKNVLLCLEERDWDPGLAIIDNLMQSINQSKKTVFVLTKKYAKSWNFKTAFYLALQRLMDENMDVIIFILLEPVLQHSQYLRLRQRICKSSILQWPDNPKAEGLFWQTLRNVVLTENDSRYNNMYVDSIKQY
Summary of the method: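 HEK293-Blue-hTLR8 cells (NF-κB/AP-1-driven SEAP) in DMEM/10% FBS were treated with serially diluted compound (1% DMSO final) plus R848 for 20 hrs at 37 °C. Supernatant SEAP was measured with QUANTI-Blue after 2 hrs at 37 °C, absorbance 620-655 nm; antagonism seen as reduced reporter.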

[2] = Human microsome stability assay; assay type: in vitro ADME; settings: 1 µM test compound, 0.5 mg/mL liver microsomal protein, 37 °C
Summary of the method: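 Test compound at 1 µM was incubated with human liver microsomes (0.5 mg/mL protein) and an NADPH-regenerating system in 100 mM potassium phosphate, pH 7.4, at 37 °C. Samples were taken at 0–30 min and quenched with acetonitrile. Remaining compound was quantified by LC-MS/MS, with no-NADPH controls.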

Row | Structure (SMILES) | IC50 [1] | Clearance of Human microsome [2]
1 | [2H]c1ccc2c(N3C[C@H](CN4CCN(c5ccc6c(n5)CN[C@@H]6C)CC4)O[C@H](C)C3)ccc(C#N)c2n1 (single isomer, unassigned) [Example 98] | 5 nM | 8.02 mL/min/kg
2 | [2H]c1ccc2c(N3C[C@H](CN4CCN(c5ccc6c(n5)CN[C@H]6C)CC4)O[C@H](C)C3)ccc(C#N)c2n1 (single isomer, unassigned) [Example 99] | 5 nM | 6.32 mL/min/kg
3 | [2H]c1nc2c(C#N)ccc(N3C[C@H](CN4CCN(c5ccc6c(n5)CN[C@H]6C)CC4)O[C@H](C)C3)c2nc1[2H] (single isomer, unassigned) [Example 96] | 3 nM | 6.23 mL/min/kg
4 | [2H]c1nc2c(C#N)ccc(N3C[C@H](CN4CCN(c5ccc6c(n5)CN[C@@H]6C)CC4)O[C@H](C)C3)c2nc1[2H] (single isomer, unassigned) [Example 97] | 4 nM | 6.15 mL/min/kg
5 | [2H]c1nc2c(C#N)ccc(N3C[C@H](CN4CCN(c5cc6c(cn5)[C@@H](C)NCC6)CC4)O[C@H](C)C3)c2nc1[2H] (single isomer, unassigned) [Example 95] | 3 nM | 7.13 mL/min/kg
6 | C[C@@H]1CN(c2ccc(C#N)c3ncccc23)C[C@H](CN2CCN(c3ccc4c(c3)CNCC4)CC2)O1 [Example 9, 5-[(2R,6S)-2-methyl-6-[[4-(1,2,3,4-tetrahydroisoquinolin-7-yl)piperazin-1-yl]methyl]morpholin-4-yl]quinoline-8-carbonitrile] | 15 nM | 6.74 mL/min/kg

Further compounds by falling IC50 [1], results first:

Row | IC50 [1] | Clearance of Human microsome [2] | Structure (SMILES)
7 | 23 nM | 8.61 mL/min/kg | C[C@@H]1CN(c2ccc(C#N)c3ncccc23)C[C@H](CN2CCN(c3cnc4c(c3)CNC4)CC2)O1 [Example 10, 5-[(2S,6R)-2-[[4-(6,7-dihydro-5H-pyrrolo[3,4-b]pyridin-3-yl)piperazin-1-yl]methyl]-6-methyl-morpholin-4-yl] quinoline-8-carbonitrile]
8 | 2 nM | – | C[C@@H]1CN(c2ccc(C#N)c3nccnc23)C[C@H](CN2CCN(c3cc4c(cn3)CCN[C@H]4C)CC2)O1 (single isomer, unassigned) [Example 88]
9 | 2 nM | – | [2H]c1nc2c(C#N)ccc(N3C[C@H](CN4CCN(c5cc6c(cn5)[C@H](C)NCC6)CC4)O[C@H](C)C3)c2nc1[2H] (single isomer, unassigned) [Example 94]
10 | 2 nM | 7.69 mL/min/kg | C[C@@H]1CN(c2ccc(C#N)c3nccnc23)C[C@H](CN2CCN(c3cc4c(cn3)[C@@H](C)NCC4)CC2)O1 (single isomer, unassigned) [Example 86]
11 | 2 nM | 8.91 mL/min/kg | C[C@@H]1CN(c2ccc(C#N)c3nccnc23)C[C@H](CN2CCN(c3cc4c(cn3)CCN[C@@H]4C)CC2)O1 (single isomer, unassigned) [Example 87]
